Reference: patent US10239832B2, “N-(1-hydroxy-3-(pyrrolidinyl)propan-2-yl)pyrrolidine-3-carboxamide derivatives as glucosylceramide synthase inhibitors” (BIOMARIN PHARMACEUTICAL INC., priority 2013, dated 2019)

Each compound was assayed against T1, GCS (Canis lupus familiaris, UniProt A0A8I3MXG6) (assay: GCS enzymatic assay (MDCK cell lysate, NBD-ceramide to glucosylceramide, LC/MS)). Conditions: Table 2; class symbols A, B, C; the table does not say which of the assays; read-out: Data Range (IC50 values).
T1 construct: endogenous in cells; host or cells: MDCK (Madin-Darby canine kidney) cells, whole-cell lysate
T1 sequence (A0A8I3MXG6 1-394): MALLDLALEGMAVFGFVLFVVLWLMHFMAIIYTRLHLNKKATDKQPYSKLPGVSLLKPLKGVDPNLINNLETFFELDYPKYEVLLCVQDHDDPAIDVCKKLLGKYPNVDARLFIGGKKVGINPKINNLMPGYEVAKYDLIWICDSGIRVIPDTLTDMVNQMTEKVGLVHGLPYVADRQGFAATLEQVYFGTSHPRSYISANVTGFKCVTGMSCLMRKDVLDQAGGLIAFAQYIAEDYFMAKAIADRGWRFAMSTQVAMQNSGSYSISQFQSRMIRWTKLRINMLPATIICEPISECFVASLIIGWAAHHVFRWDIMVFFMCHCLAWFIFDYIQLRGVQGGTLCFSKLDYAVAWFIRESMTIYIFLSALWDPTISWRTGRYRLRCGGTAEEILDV
Type: biochemical, canine
Procedure, shortened: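 IC50 or percent inhibition came from LC/MS/MS (ESI+, MRM) of NBD-ceramide and glucosylceramide, with tolbutamide as internal standard. The reaction used MDCK (canine) cell lysate as the enzyme source and was ended with acetonitrile. Mock wells received 0.1% DMSO.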

IC50 [nM] | SMILES
1 to 30 | O=C(N[C@H](CN1CCCC1)[C@H](O)c1ccc(OC2CC2)c(Cl)c1)[C@@H]1CCN(c2ccc3ccsc3c2)C1 [Compound 91, (R)-1-(benzo[b]thiophen-6-yl)-N-((1R,2R)-1-(3-chloro-4-cyclopropoxyphenyl)-1-hydroxy-3-(pyrrolidin-1-yl)propan-2-yl)pyrrolidine-3-carboxamide]
1 to 30 | O=C(N[C@H](CN1CCCC1)[C@H](O)c1ccc(OC2CCOCC2)c(Cl)c1)[C@@H]1CCN(c2ccc3ccsc3c2)C1 [Compound 92, (R)-1-(benzo[b]thiophen-6-yl)-N-((1R,2R)-1-(3-chloro-4-((tetrahydro-2H-pyran-4-yl)oxy)phenyl)-1-hydroxy-3-(pyrrolidin-1-yl)propan-2-yl)pyrrolidine-3-carboxamide]
1 to 30 | O=C(N[C@H](CN1CCCC1)[C@H](O)c1cc(F)c2c(c1)OCCO2)[C@@H]1CCN(c2ccc3c(c2)CCCC3)C1 [Compound 93, (R)-N-((1R,2R)-1-(8-fluoro-2,3-dihydrobenzo[b][1,4]dioxin-6-yl)-1-hydroxy-3-(pyrrolidin-1-yl)propan-2-yl)-1-(5,6,7,8-tetrahydronaphthalen-2-yl)pyrrolidine-3-carboxamide]
1 to 30 | O=C(N[C@H](CN1CCCC1)[C@H](O)c1ccc(OC2CCOCC2)c(Cl)c1)[C@@H]1CCN(c2ccc3ccccc3c2)C1 [Compound 94, (R)-N-((1R,2R)-1-(3-chloro-4-((tetrahydro-2H-pyran-4-yl)oxy)phenyl)-1-hydroxy-3-(pyrrolidin-1-yl)propan-2-yl)-1-(naphthalen-2-yl)pyrrolidine-3-carboxamide]
1 to 30 | O=C(N[C@H](CN1CCCC1)[C@H](O)c1ccc(OC2CC2)c(Cl)c1)[C@@H]1CCN(c2ccc(F)cc2)C1 [Compound 96, (R)-N-((1R,2R)-1-(3-chloro-4-cyclopropoxyphenyl)-1-hydroxy-3-(pyrrolidin-1-yl)propan-2-yl)-1-(4-fluorophenyl)pyrrolidine-3-carboxamide]
1 to 30 | O=C(N[C@H](CN1CCCC1)[C@H](O)c1cc(F)c2c(c1)OCCO2)[C@@H]1CCN(c2ccc3ccsc3c2)C1 [Compound 97, (R)-1-(benzo[b]thiophen-6-yl)-N-((1R,2R)-1-(8-fluoro-2,3-dihydrobenzo[b][1,4]dioxin-6-yl)-1-hydroxy-3-(pyrrolidin-1-yl)propan-2-yl)pyrrolidine-3-carboxamide]
1 to 30 | O=C(N[C@H](CN1CCCC1)[C@H](O)c1ccc2c(c1)OCCO2)[C@@H]1CCN(c2ccc3cc(Cl)ccc3n2)C1 [Compound 99, (R)-1-(6-chloroquinolin-2-yl)-N-((1R,2R)-1-(2,3-dihydrobenzo[b][1,4]dioxin-6-yl)-1-hydroxy-3-(pyrrolidin-1-yl)propan-2-yl)pyrrolidine-3-carboxamide]
1 to 30 | O=C(N[C@H](CN1CCCC1)[C@H](O)c1ccc2c(c1)OCCO2)C1CCN(c2ccc3cc(Cl)ccc3n2)C1 (stereo partly drawn) [Compound 99C, 1-(6-chloroquinolin-2-yl)-N-((1R,2R)-1-(2,3-dihydrobenzo[b][1,4]dioxin-6-yl)-1-hydroxy-3-(pyrrolidin-1-yl)propan-2-yl)pyrrolidine-3-carboxamide]
1 to 30 | O=C(N[C@H](CN1CCCC1)[C@H](O)c1ccc(OC2CC2)c(Cl)c1)[C@@H]1CCN(c2ccc3cc(Cl)ccc3n2)C1 [Compound 100, (R)-N-((1R,2R)-1-(3-chloro-4-cyclopropoxyphenyl)-1-hydroxy-3-(pyrrolidin-1-yl)propan-2-yl)-1-(6-chloroquinolin-2-yl)pyrrolidine-3-carboxamide]
1 to 30 | O=C(N[C@H](CN1CCCC1)[C@H](O)c1ccc(OC2CCOCC2)c(Cl)c1)[C@@H]1CCN(c2ccc3cc(Cl)sc3c2)C1 [Compound 101, (R)-N-((1R,2R)-1-(3-chloro-4-((tetrahydro-2H-pyran-4-yl)oxy)phenyl)-1-hydroxy-3-(pyrrolidin-1-yl)propan-2-yl)-1-(2-chlorobenzo[b]thiophen-6-yl)pyrrolidine-3-carboxamide]
1 to 30 | CC(C)(O)COc1ccc([C@@H](O)[C@@H](CN2CCCC2)NC(=O)[C@@H]2CCN(c3ccc4cc(F)ccc4c3)C2)cc1Cl [Compound 102, (R)-N-((1R,2R)-1-(3-chloro-4-(2-hydroxy-2-methylpropoxy)phenyl)-1-hydroxy-3-(pyrrolidin-1-yl)propan-2-yl)-1-(6-fluoronaphthalen-2-yl)pyrrolidine-3-carboxamide]
1 to 30 | O=C(N[C@H](CN1CCCC1)[C@H](O)c1ccc(OC2CC2)c(Cl)c1)[C@@H]1CCN(c2ccc(Cl)c(Oc3ccccn3)c2)C1 [Compound 103, (R)-1-(4-chloro-3-(pyridin-2-yloxy)phenyl)-N-((1R,2R)-1-(3-chloro-4-cyclopropoxyphenyl)-1-hydroxy-3-(pyrrolidin-1-yl)propan-2-yl)pyrrolidine-3-carboxamide]
1 to 30 | O=C(N[C@H](CN1CCCC1)[C@H](O)c1cc(F)c2c(c1)OCCO2)[C@@H]1CCN(c2ccc3cc(Cl)ccc3n2)C1 [Compound 104, (R)-1-(6-chloroquinolin-2-yl)-N-((1R,2R)-1-(8-fluoro-2,3-dihydrobenzo[b][1,4]dioxin-6-yl)-1-hydroxy-3-(pyrrolidin-1-yl)propan-2-yl)pyrrolidine-3-carboxamide]
1 to 30 | O=C(N[C@H](CN1CCCC1)[C@H](O)c1cc(F)c2c(c1)OCCO2)[C@@H]1CCN(c2ccc(Cl)c(Oc3ccccn3)c2)C1 [Compound 105, (R)-1-(4-chloro-3-(pyridin-2-yloxy)phenyl)-N-((1R,2R)-1-(8-fluoro-2,3-dihydrobenzo[b][1,4]dioxin-6-yl)-1-hydroxy-3-(pyrrolidin-1-yl)propan-2-yl)pyrrolidine-3-carboxamide]

Same assay, conditions: Table 2; class symbols D, E, F, NA (not active); the table does not say which of the assays

Data Range (% inhibition) | SMILES
F (1-49% (or less than 50%)) | O=C(N[C@H](CN1CCCC1)[C@H](O)c1ccc2c(c1)OCCO2)[C@H]1CCN(c2cnc3cccnc3c2)C1 [Compound 90D, (S)-N-((1R,2R)-1-(2,3-dihydrobenzo[b][1,4]dioxin-6-yl)-1-hydroxy-3-(pyrrolidin-1-yl)propan-2-yl)-1-(1,5-naphthyridin-3-yl)pyrrolidine-3-carboxamide]
E (50-74% (or less than 75%)) | O=C(N[C@H](CN1CCCC1)[C@H](O)c1cc(F)c2c(c1)OCCO2)[C@H]1CCN(c2ccc3c(c2)CCCC3)C1 [Compound 93A, (S)-N-((1R,2R)-1-(8-fluoro-2,3-dihydrobenzo[b][1,4]dioxin-6-yl)-1-hydroxy-3-(pyrrolidin-1-yl)propan-2-yl)-1-(5,6,7,8-tetrahydronaphthalen-2-yl)pyrrolidine-3-carboxamide]
E (50-74% (or less than 75%)) | O=C(N[C@H](CN1CCCC1)[C@H](O)c1cc(F)c2c(c1)OCCO2)[C@H]1CCN(c2ccc3ccsc3c2)C1 [Compound 97C, (S)-1-(benzo[b]thiophen-6-yl)-N-((1R,2R)-1-(8-fluoro-2,3-dihydrobenzo[b][1,4]dioxin-6-yl)-1-hydroxy-3-(pyrrolidin-1-yl)propan-2-yl)pyrrolidine-3-carboxamide]
F (1-49% (or less than 50%)) | O=C(N[C@H](CN1CCCC1)[C@H](O)c1ccc(OC2CC2)c(Cl)c1)[C@H]1CCN(c2ccc3c(c2)CCCC3)C1 [Compound 98A, (S)-N-((1R,2R)-1-(3-chloro-4-cyclopropoxyphenyl)-1-hydroxy-3-(pyrrolidin-1-yl)propan-2-yl)-1-(5,6,7,8-tetrahydronaphthalen-2-yl)pyrrolidine-3-carboxamide]
F (1-49% (or less than 50%)) | O=C(N[C@H](CN1CCCC1)[C@H](O)c1ccc2c(c1)OCCO2)[C@H]1CCN(c2ccc3cc(Cl)ccc3n2)C1 [Compound 99D, (S)-1-(6-chloroquinolin-2-yl)-N-((1R,2R)-1-(2,3-dihydrobenzo[b][1,4]dioxin-6-yl)-1-hydroxy-3-(pyrrolidin-1-yl)propan-2-yl)pyrrolidine-3-carboxamide]

Further lines, the compound ahead of its results:

SMILES | Data Range (% inhibition)
O=C(N[C@H](CN1CCCC1)[C@H](O)c1ccc2c(c1)OCCO2)[C@@H]1CCN(c2cnc3cccnc3c2)C1 [Compound 90, (R)-N-((1R,2R)-1-(2,3-dihydrobenzo[b][1,4]dioxin-6-yl)-1-hydroxy-3-(pyrrolidin-1-yl)propan-2-yl)-1-(1,5-naphthyridin-3-yl)pyrrolidine-3-carboxamide] | F (1-49% (or less than 50%))
O=C(N[C@H](CN1CCC1)[C@H](O)c1ccc(OC2CC2)c(Cl)c1)[C@@H]1CCN(c2ccc3cc(F)ccc3c2)C1 [Compound 95, (R)-N-((1R,2R)-3-(azetidin-1-yl)-1-(3-chloro-4-cyclopropoxyphenyl)-1-hydroxypropan-2-yl)-1-(6-fluoronaphthalen-2-yl)pyrrolidine-3-carboxamide] | D (75-100%)
O=C(N[C@H](CN1CCCC1)[C@H](O)c1ccc(OC2CC2)c(Cl)c1)[C@@H]1CCN(c2ccc3c(c2)CCCC3)C1 [Compound 98, (R)-N-((1R,2R)-1-(3-chloro-4-cyclopropoxyphenyl)-1-hydroxy-3-(pyrrolidin-1-yl)propan-2-yl)-1-(5,6,7,8-tetrahydronaphthalen-2-yl)pyrrolidine-3-carboxamide] | D (75-100%)
